The source of these data is paper PMC7400207, “It Takes Two: Dimerization Is Essential for the Broad-Spectrum Predatory and Defensive Activities of the Venom Peptide Mp1a from the Jack Jumper Ant Myrmecia pilosula” (Biomedicines, 2020).

The test system of one series is HEK293 cells. Particulars: HEK293, 24 h, resazurin; cited from earlier work. As to the method: Table 2 Summary of bioassay data for synthetic Mp1a and analogues, including effective concentration (EC50) for activation of F11 cells, concentrations that caused 50% inhibition (IC50) for inhibition of larval development of H. contortus; median lethal dose (LD50) for lethal insecticidal effects on D. melanogaster; concentrations required to induce 50% cell death (CC50) for effects on viability o | column: Cytotoxicity (CC50 µM) ^b

Series [1] has as its system mouse dorsal root ganglion (DRG) cells. Kind of series: Calcium imaging of mammalian sensory neurons. It counts as cell-based. The settings on record: 1 µM peptide, Fluo-4 calcium imaging, neuronal and non-neuronal cells. As to the method: Calcium imaging of a heterogenous population of mouse dorsal root ganglion (DRG) sensory neurons was performed as previously described. In brief, dorsal root ganglion (DRG) cells isolated from 4–8-week-old male C57BL/6 mice under ethics approval TRI/IMB/093/17 (University of Queensland Animal Ethics Committee, approval date 31/03/2017) were dissociated and then plated in Dulbecco’s modified Eagle’s medium (Gibco, Grand Island, NY, USA) containing 10% fetal bovine serum (FBS; Assaymatrix, Melbourne, Australia) and penicillin/streptomycin (Gibco) on a 96-well poly-D-lysine–coated culture plate (Corning, Lowell, MA, USA), and maintained overnight. Cells were loaded with Fluo-4 AM calcium indicator as per the manufacturer’s instructions (Thermo Fisher Scientific, Grand Island, NY, USA). After loading for 1 h, the dye solution was replaced with assay solution (Hanks’ balanced salt solution and 20 mM HEPES). Fluorescence corresponding to intracellular calcium ([Ca^2+]i) of typically 100–150 DRG cells per experiment was monitored in parallel using a Nikon Ti-E deconvolution inverted microscope, equipped with a Lumencor Spectra LED light source. Images were acquired at a 20× objective at one frame/s (excitation 485 nm; emission 521 nm). For each experiment, baseline fluorescence was monitored for 30 s and then a wash of assay solution was applied.

The subject of the next series is S. aureus NRS 17. The settings on record: taken from Dekan et al.; cited from earlier work.
Another series deals with A. baumannii ATCC 19606. The settings on record: taken from Dekan et al.; cited from earlier work.
The subject of a further series is S. aureus NARSA-VRS10. The settings on record: taken from Dekan et al.; cited from earlier work.
In another series the test system is E. coli ATCC 25922. The settings on record: taken from Dekan et al.; cited from earlier work.
Another series has as its system S. aureus NARSA-VRS1. The settings on record: taken from Dekan et al.; cited from earlier work.
Series [2] has as its system S. pneumoniae ATCC 700677. Particulars: taken from Dekan et al.; cited from earlier work.
In another series the test system is P. aeruginosa ATCC 27853. Particulars: taken from Dekan et al.; cited from earlier work.
A further series deals with human red blood cells. The settings on record: cited from earlier work. Here is the method:
Table 2 Summary of bioassay data for synthetic Mp1a and analogues, including effective concentration (EC50) for activation of F11 cells, concentrations that caused 50% inhibition (IC50) for inhibition of larval development of H. contortus; median lethal dose (LD50) for lethal insecticidal effects on D. melanogaster; concentrations required to induce 50% cell death (CC50) for effects on viability o | column: Hemolysis (HC50 µM) ^b

In series [3] the test system is K. pneumoniae ATCC BAA-2146. Particulars: taken from Dekan et al.; cited from earlier work.
The subject of a further series is F11 cells. Description: FLIPR calcium assay, activation of F11 cells. The series is classed as cell-based. Particulars: F11 cells, FLIPR. In short, it runs like this:
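Intracellular calcium in F11 cells loaded 30 min at 37°C with Calcium 4 dye in physiological salt solution. Fluorescence read 10 s before and 300 s after peptide addition (PSS with 0.1% BSA); max–min signal as response, EC50 from four-parameter Hill fit, triplicates.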

The next series has as its system P. aeruginosa FADDI-PA70. Particulars: taken from Dekan et al.; cited from earlier work.
For the next series, the system named is Drosophila melanogaster. Description: Drosophila melanogaster microinjection assay. It counts as in vivo. Particulars: intrathoracic injection, 50 nL, adult female flies, lethality at 24 h; three dose-response curves, ± SEM. In short, it runs like this:
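Adult female flies (3–5 days, 0.7–0.9 mg) received intrathoracic injections of 50 nL aqueous analogue; lethality scored at 24 h, corrected for water-injected controls by Henderson-Tilton. LD50 from three dose–response curves of 7–10 doses, eight flies per dose.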

Series [4] relates to K. pneumoniae ATCC 700603. Particulars: taken from Dekan et al.; cited from earlier work.
The next series has as its system S. aureus ATCC 43300. The settings on record: taken from Dekan et al.; cited from earlier work.
A further series has as its system S. aureus NRS 1. The settings on record: taken from Dekan et al.; cited from earlier work.

In brackets after ≈: the same amount, converted by molar mass. Several values for one entry are separate records, joined by “and”; a condition that tells them apart may be missing. Identical values can stand only once. Bounds are passed on as bounds.

As usually defined, the MIC is the lowest concentration that inhibits growth of the organism. Usually EC50 stands for the concentration that produces a half-maximal response.

In the case of `CC[C@H](C)[C@H](N)C(=O)N[C@@H](CC(=O)O)C(=O)N[C@@H](Cc1c[nH]c2ccccc12)C(=O)N[C@@H](CCCCN)C(=O)N[C@@H](CCCCN)C(=O)N[C@H](C(=O)N[C@@H](CC(=O)O)C(=O)N[C@@H](Cc1c[nH]c2ccccc12)C(=O)N[C@@H](CCCCN)C(=O)N[C@@H](CCCCN)C(=O)N[C@H](C(=O)N[C@@H](CO)C(=O)N[C@@H](CCCCN)C(=O)N[C@@H](CCCCN)C(=O)N[C@H](C(=O)N[C@H]1CSSC[C@@H](C(=O)N[C@@H](CCCCN)C(=O)N[C@@H](CCCCN)C(=O)N[C@H](C(=O)N[C@@H](CC(C)C)C(=O)N[C@@H](CCCCN)C(=O)N[C@@H](CCC(N)=O)C(N)=O)C(C)C)NC(=O)[C@H](C(C)C)NC(=O)[C@H]([C@@H](C)O)NC(=O)[C@H](CCCCN)NC(=O)[C@H](C(C)C)NC(=O)[C@H](CC(C)C)NC(=O)[C@H](C(C)C)NC(=O)[C@@H](NC(=O)[C@@H](NC(=O)CNC(=O)[C@H](CCCCN)NC(=O)[C@H](CO)NC(=O)[C@@H](NC(=O)[C@H](CC(C)C)NC(=O)CNC(=O)[C@@H](NC(=O)[C@@H](N)CC(C)C)[C@@H](C)CC)C(C)C)[C@@H](C)O)CSSC[C@@H](C(=O)N[C@@H](CCCCN)C(=O)N[C@@H](Cc2ccccc2)C(=O)N[C@@H](CC(C)C)C(N)=O)NC(=O)[C@H](C)NC(=O)[C@H](CCCCN)NC(=O)[C@H](CC(C)C)NC(=O)[C@H](CCSC)NC(=O)[C@H](C(C)C)NC(=O)[C@H](CCCCN)NC1=O)[C@@H](C)O)C(C)C)C(C)C` [Analogue 1a, ∆-myrtoxin-Mp1a], the “Cytotoxicity (CC50)” value in the series with HEK293 cells is 600 nM. For the same molecule, the “Effect on [Ca2+]i of DRG cells” value in [1] was “rapid increase in [Ca^2+]i in all cells”. Besides, the MIC was 0.4 to 0.8 µM in the series with S. aureus NRS 17; 0.025 µM (≈ 0.14 µg/mL) with A. baumannii ATCC 19606; 0.8 µM (≈ 4.49 µg/mL) in the series on S. aureus NARSA-VRS10; 0.1 to 0.2 µM with E. coli ATCC 25922; 3.2 to 6.4 µM in the series with S. aureus NARSA-VRS1; 0.4 to 0.8 µM in [2]. Further, the MIC in the series on P. aeruginosa ATCC 27853 was 0.4 to 0.8 µM; in [3] it was 0.1 to 0.2 µM; in the series on P. aeruginosa FADDI-PA70, 0.8 µM (≈ 4.49 µg/mL); in [4], 0.4 to 0.8 µM; in the series on S. aureus ATCC 43300 it was 0.8 µM (≈ 4.49 µg/mL); in the series with S. aureus NRS 1 it was 3.2 µM (≈ 17.9 µg/mL). For the same molecule, in the series with human red blood cells, the “Hemolysis (HC50)” value is reported as 2.2 µM. The “Concentration at which cytolysis (rapid increase in fluorescence followed by decrease to or below baseline) was observed” value with F11 cells was at least 1 µM. The concentration giving a half-maximal response (EC50) in the series with F11 cells (Calcium 4 dye, max-min fluorescence in 300 s after peptide addition, PSS with 0.1% BSA, mean ± SEM, triplicate, read-out: Neuronal Cell Activation (EC50)) is 850 ± 30 nM. In the series on Drosophila melanogaster, the “Insecticidal Activity (LD50)” value was 260 pmol/g and 260.1 ± 16.6 pmol/g.
